Where two headings read alike, the source gives them in different places. Square brackets hold non-standard residues; d marks the D form. Ends that are not written are not given here. Peptide text beside a SMILES is read from it.
Experiments:
[1] = molecular target: T1, human CMKLR1 (Homo sapiens, UniProt Q99788); assay: Ca2+ mobilization (CellLux imaging) agonist assay in HEK293A cells expressing CMKLR1 and Gα15; type: cell-based
T1 construct: host or cells: HEK293A (Invitrogen), stably expressing human Gα15
T1 sequence (Q99788 1-373): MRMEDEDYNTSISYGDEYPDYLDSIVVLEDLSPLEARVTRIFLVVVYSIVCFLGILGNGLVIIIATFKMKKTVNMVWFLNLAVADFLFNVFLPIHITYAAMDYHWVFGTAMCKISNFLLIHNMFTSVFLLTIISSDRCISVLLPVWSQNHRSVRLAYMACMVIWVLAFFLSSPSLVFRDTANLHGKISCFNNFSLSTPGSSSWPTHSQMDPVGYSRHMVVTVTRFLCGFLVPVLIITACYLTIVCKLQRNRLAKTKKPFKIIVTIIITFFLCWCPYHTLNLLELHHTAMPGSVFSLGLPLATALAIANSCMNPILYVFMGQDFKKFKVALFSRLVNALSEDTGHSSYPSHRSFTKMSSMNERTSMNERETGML
Method in brief: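 HEK293A cells co-expressing CMKLR1 and Gα15 were loaded with FLUO4-AM, and peptides were added robotically in C1 buffer (HEPES pH 7.4, 2 mM CaCl2) with 0.1% BSA. Fluorescence changes were read in duplicate wells, buffer-subtracted and normalized to background. EC50 came from amplitude–concentration plots.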

[2] = In vitro peptide stability in human serum (RP-HPLC); conditions: for half-life at 50 µg/mL: human, human serum, 25% (v/v) in RPMI; for t1/2: metabolic stability in human serum
Procedure: The initial time is recorded, and at known time intervals 50 µL of the reaction solution is removed and added to 100 µL of 6% aqueous trichloroacetic acid (TCA) for precipitation of serum proteins. […] The reaction supernatant is then analyzed using RP-HPLC (Agilent 1200 LC System) on a ZORBAX Eclipse XDB-C18, 4.6×150 mm, 5 µm column (Agilent). […] Fluorescence is detected at an excitation wavelength of 280 nm and emission wavelength of 340 nm. Kinetic analysis was carried out by least-squares analysis of the logarithm of the integration peak area versus time.

[3] = Ca2+ mobilization, CMKLR1, decimal comma
[4] = Ca2+ mobilization, CMKLR1, decimal comma, NR where no EC50 is given, read-out: EC50
[5] = intracellular calcium mobilization, HEK293 cells expressing CMKLR1, mean of three independent experiments ± SD, read-out: activity: EC50 ±SD

max response [1, 3]	EC50 [1, 4] [nM]	half-life at 50 µg/mL [2] [min]	EC50 [1, 5] [nM]	Compound	t1/2 [2] [min]	max response [1]
1,97 DF/F0	104	637	–	CC(C)C[C@H](N)C(=O)N[C@H](Cc1ccccc1)C(=O)NCC(=O)N1CCC[C@@H]1C(=O)N[C@@H](Cc1ccc(O)cc1)C(=O)NCC(=O)N[C@H](Cc1c[nH]c2ccccc12)C(=O)N[C@H](CO)C(=O)N[C@@H](C)C(=O)O [compound 138] (H-L[dF]G[dP]YG[dW][dS]A-OH; N-terminus assumed)	–	–
1,55 DF/F0	104	56	–	CC(C)C[C@@H](NC(=O)[C@H](Cc1c[nH]cn1)NC(=O)[C@@H](N)CO)C(=O)NCC(=O)N[C@@H](CCC(N)=O)C(=O)N[C@@H](Cc1ccccc1)C(=O)N[C@H](Cc1c[nH]c2ccccc12)C(=O)N[C@@H](Cc1ccccc1)C(=O)N[C@H](CO)C(=O)O [compound 139] (H-SH[dL]GQF[dW]F[dS]-OH; N-terminus assumed)	–	–
1,49 DF/F0	105	612	–	CC(C)C[C@@H](NC(=O)[C@H](Cc1c[nH]cn1)NC(=O)[C@H](N)CO)C(=O)NCC(=O)N[C@@H](CCC(N)=O)C(=O)N[C@@H](Cc1ccc(O)cc1)C(=O)N[C@@H](C)C(=O)N[C@@H](Cc1ccccc1)C(=O)N[C@H](Cc1ccccc1)C(=O)O [compound 140] (H-[dS]H[dL]GQYAF[dF]-OH; N-terminus assumed)	–	–
1,73 DF/F0	108	34	–	CC(C)C[C@H](NC(=O)[C@@H](N)Cc1ccc(O)cc1)C(=O)N1CCC[C@H]1C(=O)NCC(=O)N[C@@H](CCC(N)=O)C(=O)N[C@@H](Cc1ccc(O)cc1)C(=O)N[C@@H](C)C(=O)N[C@H](C)C(=O)N[C@H](Cc1ccccc1)C(=O)O [compound 141] (H-YLPGQYA[dA][dF]-OH; N-terminus assumed)	–	–
1,55 DF/F0	128	421	–	CC(C)C[C@H](NC(=O)[C@H](N)Cc1ccc(O)cc1)C(=O)N1CCC[C@H]1C(=O)NCC(=O)N[C@H](Cc1c[nH]c2ccccc12)C(=O)N[C@@H](Cc1ccc(O)cc1)C(=O)N[C@@H](C)C(=O)N[C@@H](Cc1ccccc1)C(=O)N[C@H](Cc1ccccc1)C(=O)O [compound 142] (H-[dY]LPG[dW]YAF[dF]-OH; N-terminus assumed)	–	–
1,56 DF/F0	145	81	–	CC(C)C[C@H](NC(=O)[C@@H](N)CC(C)C)C(=O)N[C@@H](Cc1ccc(O)cc1)C(=O)N[C@H](Cc1c[nH]c2ccccc12)C(=O)N1CCC[C@H]1C(=O)N[C@@H](Cc1ccc(O)cc1)C(=O)N[C@@H](C)C(=O)N[C@@H](CCCCN)C(=O)N[C@H](CO)C(=O)O [compound 144] (H-LLY[dW]PYAK[dS]-OH; N-terminus assumed)	–	–
1,02 DF/F0	150	40	–	CC(C)C[C@H](NC(=O)[C@H](Cc1ccc(O)cc1)NC(=O)[C@@H](Cc1ccccc1)NC(=O)[C@@H]1CCCN1C(=O)[C@H](CC(C)C)NC(=O)[C@@H](N)Cc1ccc(O)cc1)C(=O)N1CCC[C@H]1C(=O)NCC(=O)N[C@H](Cc1ccccc1)C(=O)O [compound 145] (H-YLP[dF]YLPG[dF]-OH; N-terminus assumed)	–	–
1,49 DF/F0	171	2260	–	C[C@@H](NC(=O)[C@H](Cc1ccc(O)cc1)NC(=O)[C@H](CCC(N)=O)NC(=O)[C@H](N)Cc1ccccc1)C(=O)N[C@@H](CCC(N)=O)C(=O)N[C@@H](Cc1ccc(O)cc1)C(=O)N[C@H](Cc1c[nH]c2ccccc12)C(=O)N[C@@H](Cc1ccccc1)C(=O)N[C@H](CO)C(=O)O [compound 146] (H-[dF]QY[dA]QY[dW]F[dS]-OH; N-terminus assumed)	–	–
1,36 DF/F0	207	28	–	CC(C)C[C@H](NC(=O)[C@@H](N)Cc1ccc(O)cc1)C(=O)N1CCC[C@H]1C(=O)N[C@@H](Cc1ccc(O)cc1)C(=O)N1CCC[C@H]1C(=O)N[C@@H](Cc1ccc(O)cc1)C(=O)N1CCC[C@@H]1C(=O)N[C@@H](Cc1ccccc1)C(=O)N[C@H](Cc1ccccc1)C(=O)O [compound 147] (H-YLPYPY[dP]F[dF]-OH; N-terminus assumed)	–	–
1,74 DF/F0	207	32	–	CC(C)C[C@H](NC(=O)[C@H](Cc1ccc(O)cc1)NC(=O)[C@H](CCC(N)=O)NC(=O)[C@@H](Cc1ccccc1)NC(=O)[C@@H](CC(=O)O)NC(=O)[C@@H]1CCCN1C(=O)[C@H](CC(C)C)NC(=O)[C@@H](N)Cc1ccc(O)cc1)C(=O)N1CCC[C@H]1C(=O)O [compound 148] (H-YLP[dD][dF]QYLP-OH; N-terminus assumed)	–	–
1,51 DF/F0	271	30	–	CC(C)C[C@H](NC(=O)[C@@H]1CCCN1)C(=O)N[C@H](CCC(N)=O)C(=O)N[C@@H](Cc1ccc(O)cc1)C(=O)N1CCC[C@H]1C(=O)N[C@@H](Cc1ccc(O)cc1)C(=O)N[C@H](CS)C(=O)N[C@@H](CC(C)C)C(=O)N[C@H](Cc1ccccc1)C(=O)O [compound 149] (H-PL[dQ]YPY[dC]L[dF]-OH; N-terminus assumed)	–	–
1,35 DF/F0	284	62	–	CC(C)C[C@H](NC(=O)[C@@H](N)Cc1ccc(O)cc1)C(=O)N1CCC[C@H]1C(=O)N[C@H](Cc1ccc(O)cc1)C(=O)N[C@H](CCC(N)=O)C(=O)N[C@@H](Cc1ccc(O)cc1)C(=O)N[C@@H](C)C(=O)N[C@@H](CCC(N)=O)C(=O)N[C@H](Cc1ccccc1)C(=O)O [compound 150] (H-YLP[dY][dQ]YAQ[dF]-OH; N-terminus assumed)	–	–
1,47 DF/F0	298	91	–	CC(C)C[C@H](NC(=O)[C@@H](N)Cc1ccc(O)cc1)C(=O)N1CCC[C@H]1C(=O)N[C@H](CC(C)C)C(=O)NCC(=O)N[C@@H](Cc1ccc(O)cc1)C(=O)N[C@@H](C)C(=O)N1CCC[C@@H]1C(=O)N[C@H](Cc1ccccc1)C(=O)O [compound 151] (H-YLP[dL]GYA[dP][dF]-OH; N-terminus assumed)	–	–
1,31 DF/F0	313	86	–	CC(C)C[C@H](NC(=O)[C@@H]1CCCN1C(=O)[C@@H]1CCCN1)C(=O)N[C@H](Cc1c[nH]c2ccccc12)C(=O)N[C@@H](CCC(N)=O)C(=O)N[C@@H](Cc1ccc(O)cc1)C(=O)N[C@@H](C)C(=O)N[C@H](CC(=O)O)C(=O)N[C@H](CO)C(=O)O [compound 153] (H-PPL[dW]QYA[dD][dS]-OH; N-terminus assumed)	–	–
–	–	1160 ± 41	8.2 ± 3.96	CC(C)C[C@H](NC(=O)[C@H](N)Cc1ccccc1)C(=O)N1CCC[C@H]1C(=O)NCC(=O)N[C@@H](CCC(N)=O)C(=O)N[C@@H](Cc1ccc(O)cc1)C(=O)N[C@@H](C)C(=O)N[C@@H](Cc1ccccc1)C(=O)N[C@H](Cc1ccccc1)C(=O)O [fLPGQYAFf] (H-[dF]LPGQYAF[dF]-OH; N-terminus assumed)	–	–
–	–	1410 ± 85	2.9 ± 1.34	CC(C)C[C@H](NC(=O)[C@H](N)Cc1ccc(O)cc1)C(=O)N1CCC[C@H]1C(=O)N[C@H](CO)C(=O)N[C@@H](CCC(N)=O)C(=O)N[C@@H](Cc1ccc(O)cc1)C(=O)N[C@@H](C)C(=O)N[C@@H](Cc1ccccc1)C(=O)N[C@H](CO)C(=O)O [yLPsQYAFs] (H-[dY]LP[dS]QYAF[dS]-OH; N-terminus assumed)	–	–

max response [1, 3]	EC50 [1, 4] [nM]	half-life at 50 µg/mL [2] [min]	EC50 [1, 5] [nM]	Compound	t1/2 [2] [min]	max response [1]
1,7 DF/F0	1650	16	–	FLFGFQFAY-OH [compound 109]	–	–
0,69 DF/F0	406	19	–	FLPGALGFF-OH [compound 60]	–	–
0,81 DF/F0	554	46	–	FLPGQFLPG-OH [compound 63]	–	–
0,91 DF/F0	713	32	–	FLPGQPYFL-OH [compound 65]	–	–
0,93 DF/F0	567	26	–	FLPGQYAFK-OH [compound 64]	–	–
1,06 DF/F0	13.5	28	–	FLPGQYAFL-OH [compound 46]	–	–
–	–	28 ± 1	2.75 ± 0.14	FLPGQYAFS-OH	–	–
0,68 DF/F0	–	–	–	FLPGQYAFS-OH [compound 34]	28	–
0,77 DF/F0	3000	20	–	FLPPQFAFF-OH [compound 73]	–	–
0,85 DF/F0	5120	39	–	LLPGLFLKL-OH [compound 74]	–	–
0,9 DF/F0	335	80	–	PGPGQFAFF-OH [compound 59]	–	–
0,43 DF/F0	1920	27	–	PLPGQFQFK-OH [compound 70]	–	–
0,6 DF/F0	–	84	–	PLPGQQAFF-OH [compound 79]	–	–
0,65 DF/F0	5830	16	–	YFLGQFAFK-OH [compound 76]	–	–
–	–	–	–	YFPGQFAFG-OH [compound 29]	13	1,01 DF/F0

Reference: publication PMC3351444, “Molecular Evolution of a Peptide GPCR Ligand Driven by Artificial Neural Networks” (PLoS ONE, 2012)
